Assay results from patent publication US20130123108A1, “ACTIVE SUBSTANCE COMPOSITION COMPRISING AT LEAST ONE NITROGEN ATOM-CONTAINING, HYPERBRANCHED POLYMER” (BASF SE, priority 2005, published 2013).
Read-outs that look alike come from different tables or passages of the source.

What was measured:
[1] = Solubility from solid dispersion with hyperbranched polymer, general procedure 2; format: physicochemical; details: for solubility at 24 h: pH 6.8, aqueous with cosolvent or surfactant or cyclodextrin, thermodynamic from solid
Protocol: 0.5 g of the chosen polymer and 0.1 g of a compound to be dissolved in water were dissolved in approximately 20 ml of N,N-dimethylformamide (DMF). The mixture was stirred and subsequently freed from DMF. A solid dispersion of the chosen copolymer with the chosen compound to be dissolved was obtained. The solid dispersion was added to 100 ml of water (buffered to pH 6.8) and the mixture was stirred for 24 h. After filtration, solutions were obtained and their contents of the compound to be dissolved were determined using HPLC and a UV detector. The literature values for water solubilities of the chosen compounds and the wavelengths of the measurement by UV spectroscopy are listed in table 1:
Determination of the properties of aqueous active substance compositions according to general procedure 2.

[2] = Redispersing of polymer/active substance compositions in buffer, general procedure 1; format: physicochemical; design: key: 1: unsatisfactory redispersing, sediment; 2: no ambiguous assessment possible; 3: complete redispersing with clouding (weak to opaque); 4: clear solution; details: phosphate buffer pH 6.8
Protocol: Each time 1 or 10% by weight solutions in N,N-dimethylformamide (DMF) of the hyperbranched polymer to be assessed and also 0.1% by weight solutions of the active substances, likewise in DMF, were provided. Active substance compositions were prepared by mixing in a Tecan pipetting robot with the use of 1 ml flat-bottomed glass vessels from HJ-Bioanalytik (96-well plates in the deep well format). Each time 50 μl of polymer and 500 μl of active substance solution were added to a vessel and the solvent was subsequently removed by drying for 24 hours in a vacuum-drying chamber at 70° C. and a pressure of less than 10 mbar. The test samples were subsequently redispersed by addition of 500 μl of buffer solution (phosphate buffer pH 6.8, 23.05 g of potassium dihydrogenphosphate, 23.30 g of disodium hydrogenphosphate, deionized water made up to 5000 ml) and subsequent shaking for two hours using an HP MTP shaker. The assessment was carried out by measuring the particle size using diffusion light scattering after a resting phase of 2 h.
1=unsatisfactory redispersing, sediment 2=no ambiguous assessment possible 3=complete redispersing with clouding (weak to opaque) 4=clear solution
Determination of the properties of aqueous active substance compositions according to general procedure 1. Use was made of bentazon at a polymer/active substance ratio of 1:1 and metazachlor at a polymer/active substance ratio of 10:1.

[3] = literature values, Table 1; cited from earlier work
[4] = literature values, Table 2; cited from earlier work
[5] = Solubility in supersaturated polymer solution, general procedure 3; format: physicochemical; details: phosphate buffer pH 7.0 with hyperbranched polymer, pH 7, aqueous with cosolvent or surfactant or cyclodextrin, thermodynamic from solid, 0.2 g piroxicam, 20 g phosphate buffer pH 7.0, UV spectroscopy
Protocol: Approximately 2 g of polymer were weighed out in a glass beaker. Subsequently, 0.2 g of piroxicam or 0.3 g of carbamazepine was each time weighed out into the charge in order to obtain a supersaturated solution. Subsequently, 20 g of phosphate buffer pH 7.0 were added. After filtration, solutions were obtained and their contents of the compound to be dissolved were determined by UV spectroscopy.
Determination of the properties of aqueous active substance compositions according to general procedure 3.

[6] = water buffered to pH 6.8 with hyperbranched polymer, 0.5 g polymer, 0.1 g compound, 100 ml water buffered to pH 6.8, stirred 24 h, HPLC/UV, read-out: Solubility in the presence of Polymer 5
[7] = water buffered to pH 6.8 with hyperbranched polymer, Solubility in the presence of Polymer 1, 0.5 g polymer, 0.1 g compound, 100 ml water buffered to pH 6.8, stirred 24 h, HPLC/UV

## N#Cc1nn(-c2c(Cl)cc(C(F)(F)F)cc2Cl)c(N)c1[S+]([O-])C(F)(F)F (centres unmarked) [Fipronil]
[1]; Solubility in the presence of Polymer 1
  solubility at 24 h: 448 µg/mL

## Cc1cccc(C)c1N(Cn1cccn1)C(=O)CCl [Metazachlor]
[2]; Polymer from example 1, polymer/active substance ratio 10:1
  Assessment: 3
[2]; Polymer from example 6, polymer/active substance ratio 10:1
  Assessment: 3

## CN1C(C(=O)Nc2ccccn2)=C(O)c2ccccc2S1(=O)=O [Piroxicam]
[3]
  Water solubility (without polymer): 200 µg/mL
[4]
  Water solubility (without polymer): 420 µg/mL
[1]; [6]
  solubility at 24 h: 1110 µg/mL
[1]; [7]
  solubility at 24 h: 1020 µg/mL
[5]; Solubility in the presence of Polymer 1, approx. 2 g polymer
  solubility: 9200 µg/mL
[5]; approx. 2 g polymer, read-out: Solubility in the presence of Polymer 3
  solubility: 5300 µg/mL

## NC(=O)N1c2ccccc2C=Cc2ccccc21 [Carbamazepine]
[3]
  Water solubility (without polymer): 120 µg/mL
[1]; [6]
  solubility at 24 h: 190 µg/mL
[1]; [7]
  solubility at 24 h: 181 µg/mL
[1]; water buffered to pH 6.8 with hyperbranched polymer, Solubility in the presence of Polymer 4, 0.5 g polymer, 0.1 g compound, 100 ml water buffered to pH 6.8, stirred 24 h, HPLC/UV
  solubility at 24 h: 336 µg/mL

## CC(C)N1C(=O)c2ccccc2NS1(=O)=O [Bentazon]
[2]; Polymer from example 1, polymer/active substance ratio 1:1
  Assessment: 4
[2]; Polymer from example 6, polymer/active substance ratio 1:1
  Assessment: 4

## CCOC(=O)/C(Cl)=C/c1cc(N2C(=O)C3=C(CCCC3)C2=O)ccc1Cl [Cinidon-ethyl]
[3]
  Water solubility (without polymer): 0.057 µg/mL
[1]; 0.5 g polymer, 0.1 g compound, 100 ml water buffered to pH 6.8, stirred 24 h, HPLC/UV
  Solubility in the presence of Polymer 1: 97 µg/mL
